Legend:
Streptococcus pneumoniae [1] = test: Antimicrobial activity against penicillin-susceptible Streptococcus pneumoniae clinical isolates by broth microdilution method; assay type: functional
Streptococcus pyogenes [2] = test: Antimicrobial activity against erythromycin-nonsusceptible Streptococcus pyogenes clinical isolates by broth microdilution method; assay type: functional
[3] = system: Staphylococcus haemolyticus; test: Antimicrobial activity against Staphylococcus haemolyticus clinical isolates assessed as resistant isolates by broth microdilution method; assay type: functional
[4] = system: Staphylococcus haemolyticus; test: Antimicrobial activity against oxacillin-resistant Staphylococcus haemolyticus clinical isolates assessed as percent susceptible isolates by broth microdilution method; assay type: functional
Streptococcus pneumoniae [5] = test: Antimicrobial activity against penicillin-resistant Streptococcus pneumoniae clinical isolates by broth microdilution method; assay type: functional
[6] = system: Staphylococcus epidermidis; test: Antimicrobial activity against oxacillin-susceptible Staphylococcus epidermidis clinical isolates by broth microdilution method; assay type: functional
[7] = Antimicrobial activity against erythromycin-susceptible Streptococcus Group C clinical isolates by broth microdilution method; assay type: functional; conditions: Streptococcus sp. 'group C'
Streptococcus agalactiae [8] = test: Antimicrobial activity against erythromycin-susceptible Streptococcus agalactiae clinical isolates assessed as percent susceptible isolates by broth microdilution method; assay type: functional
Streptococcus [9] = test: Antimicrobial activity against erythromycin-susceptible Streptococcus Group F clinical isolates by broth microdilution method; assay type: functional
Streptococcus agalactiae [10] = test: Antimicrobial activity against erythromycin-nonsusceptible Streptococcus agalactiae clinical isolates by broth microdilution method; assay type: functional
Streptococcus pyogenes [11] = test: Antimicrobial activity against Streptococcus pyogenes clinical isolates assessed as percent susceptible isolates by broth microdilution method; assay type: functional
Enterococcus faecalis [12] = test: Antimicrobial activity against vancomycin-susceptible Enterococcus faecalis clinical isolates assessed as resistant isolates by broth microdilution method; assay type: functional
[13] = system: Staphylococcus haemolyticus; test: Antimicrobial activity against oxacillin-susceptible Staphylococcus haemolyticus clinical isolates assessed as percent susceptible isolates by broth microdilution method; assay type: functional
Streptococcus agalactiae [14] = test: Antimicrobial activity against erythromycin-susceptible Streptococcus agalactiae clinical isolates assessed as resistant isolates by broth microdilution method; assay type: functional
Streptococcus pneumoniae [15] = test: Antimicrobial activity against Streptococcus pneumoniae clinical isolates by broth microdilution method; assay type: functional
Streptococcus pneumoniae [16] = test: Antimicrobial activity against penicillin-resistant Streptococcus pneumoniae clinical isolates assessed as percent susceptible isolates by broth microdilution method; assay type: functional
Streptococcus pneumoniae [17] = test: Antimicrobial activity against penicillin-intermediate Streptococcus pneumoniae clinical isolates by broth microdilution method; assay type: functional
Streptococcus pyogenes [18] = test: Antimicrobial activity against erythromycin-susceptible Streptococcus pyogenes clinical isolates by broth microdilution method; assay type: functional
[19] = system: Staphylococcus haemolyticus; test: Antimicrobial activity against oxacillin-resistant Staphylococcus haemolyticus clinical isolates by broth microdilution method; assay type: functional
Streptococcus agalactiae [20] = test: Antimicrobial activity against Streptococcus agalactiae clinical isolates by broth microdilution method; assay type: functional
Enterococcus faecium = test: Antimicrobial activity against Enterococcus faecium clinical isolates by broth microdilution method; assay type: functional
Enterococcus faecalis [21] = test: Antimicrobial activity against vancomycin-nonsusceptible Enterococcus faecalis clinical isolates assessed as resistant isolates by broth microdilution method; assay type: functional
[22] = Antimicrobial activity against erythromycin-susceptible Streptococcus Group G clinical isolates by broth microdilution method; assay type: functional; conditions: Streptococcus sp. 'group G'
[23] = Antimicrobial activity against erythromycin-susceptible Streptococcus Group G clinical isolates assessed as percent susceptible isolates by broth microdilution method; assay type: functional, Streptococcus sp. 'group G'
[24] = Antimicrobial activity against Streptococcus Group G clinical isolates by broth microdilution method; assay type: functional; conditions: Streptococcus sp. 'group G'
[25] = Antimicrobial activity against erythromycin-susceptible Streptococcus Group C clinical isolates assessed as percent susceptible isolates by broth microdilution method; assay type: functional, Streptococcus sp. 'group C'
Streptococcus [26] = test: Antimicrobial activity against Streptococcus Group F clinical isolates by broth microdilution method; assay type: functional
Streptococcus pyogenes [27] = test: Antimicrobial activity against Streptococcus pyogenes clinical isolates by broth microdilution method; assay type: functional
[28] = Antimicrobial activity against erythromycin-nonsusceptible Streptococcus Group C clinical isolates by broth microdilution method; assay type: functional; conditions: Streptococcus sp. 'group C'
Enterococcus faecalis [29] = test: Antimicrobial activity against Enterococcus faecalis expressing VanB gene clinical isolates assessed as resistant isolates by broth microdilution method; assay type: functional
Streptococcus agalactiae [30] = test: Antimicrobial activity against erythromycin-nonsusceptible Streptococcus agalactiae clinical isolates assessed as resistant isolates by broth microdilution method; assay type: functional
Streptococcus pneumoniae [31] = test: Antimicrobial activity against penicillin-intermediate Streptococcus pneumoniae clinical isolates assessed as percent susceptible isolates by broth microdilution method; assay type: functional
[32] = Antimicrobial activity against Streptococcus Group C clinical isolates by broth microdilution method; assay type: functional; conditions: Streptococcus sp. 'group C'
Enterococcus faecalis [33] = test: Antimicrobial activity against Enterococcus faecalis expressing VanA gene clinical isolates assessed as percent susceptible isolates by broth microdilution method; assay type: functional
[34] = system: Staphylococcus epidermidis; test: Antimicrobial activity against oxacillin-resistant Staphylococcus epidermidis clinical isolates assessed as percent susceptible isolates by broth microdilution method; assay type: functional
[35] = Antimicrobial activity against erythromycin-nonsusceptible Streptococcus Group C clinical isolates assessed as percent susceptible isolates by broth microdilution method; assay type: functional, Streptococcus sp. 'group C'
[36] = system: Staphylococcus haemolyticus; test: Antimicrobial activity against oxacillin-susceptible Staphylococcus haemolyticus clinical isolates by broth microdilution method; assay type: functional
Streptococcus pyogenes [37] = test: Antimicrobial activity against erythromycin-nonsusceptible Streptococcus pyogenes clinical isolates assessed as percent susceptible isolates by broth microdilution method; assay type: functional
Streptococcus agalactiae [38] = test: Antimicrobial activity against erythromycin-susceptible Streptococcus agalactiae clinical isolates by broth microdilution method; assay type: functional
[39] = Antimicrobial activity against erythromycin-nonsusceptible Streptococcus Group G clinical isolates by broth microdilution method; assay type: functional; conditions: Streptococcus sp. 'group G'
Streptococcus agalactiae [40] = test: Antimicrobial activity against Streptococcus agalactiae clinical isolates assessed as resistant isolates by broth microdilution method; assay type: functional
Streptococcus pneumoniae [41] = test: Antimicrobial activity against penicillin-susceptible Streptococcus pneumoniae clinical isolates assessed as percent susceptible isolates by broth microdilution method; assay type: functional
Streptococcus pneumoniae [42] = test: Antimicrobial activity against Streptococcus pneumoniae clinical isolates assessed as percent susceptible isolates by broth microdilution method; assay type: functional
Streptococcus agalactiae [43] = test: Antimicrobial activity against Streptococcus agalactiae clinical isolates assessed as percent susceptible isolates by broth microdilution method; assay type: functional
Staphylococcus aureus = test: Antimicrobial activity against oxacillin-susceptible Staphylococcus aureus clinical isolates assessed as percent susceptible isolates by broth microdilution method; assay type: functional
Enterococcus faecalis [44] = test: Antimicrobial activity against Enterococcus faecalis expressing VanA gene clinical isolates assessed as resistant isolates by broth microdilution method; assay type: functional
Streptococcus [45] = test: Antimicrobial activity against erythromycin-nonsusceptible Streptococcus Group F clinical isolates by broth microdilution method; assay type: functional
[46] = system: Staphylococcus haemolyticus; test: Antimicrobial activity against Staphylococcus haemolyticus clinical isolates by broth microdilution method; assay type: functional
[47] = system: Staphylococcus haemolyticus; test: Antimicrobial activity against oxacillin-susceptible Staphylococcus haemolyticus clinical isolates assessed as resistant isolates by broth microdilution method; assay type: functional
Streptococcus pyogenes [48] = test: Antimicrobial activity against erythromycin-susceptible Streptococcus pyogenes clinical isolates assessed as percent susceptible isolates by broth microdilution method; assay type: functional
Streptococcus agalactiae [49] = test: Antimicrobial activity against erythromycin-nonsusceptible Streptococcus agalactiae clinical isolates assessed as percent susceptible isolates by broth microdilution method; assay type: functional

CN[C@H](CC(C)C)C(=O)N[C@H]1C(=O)N[C@@H](CC(N)=O)C(=O)N[C@H]2C(=O)N[C@H]3C(=O)N[C@H](C(=O)N[C@H](C(=O)O)c4cc(O)cc(O)c4-c4cc3ccc4O)[C@H](O)c3ccc(c(Cl)c3)Oc3cc2cc(c3O[C@@H]2O[C@H](CO)[C@@H](O)[C@H](O)[C@H]2O[C@H]2C[C@](C)(N)[C@H](O)[C@H](C)O2)Oc2ccc(cc2Cl)[C@H]1O [VANCOMYCIN]
0.5 µg/mL: MIC90 (Streptococcus pneumoniae [5]) | MIC90 [7] | MIC90 (Streptococcus [9]) | MIC90 (Streptococcus agalactiae [10]) | MIC90 (Streptococcus agalactiae [20]) | MIC90 [22] | MIC90 [24] | MIC90 (Streptococcus [26]) | MIC90 [28] | MIC90 [32] | MIC90 (Streptococcus agalactiae [38]) | MIC90 [39] | MIC90 (Streptococcus [45])
2 µg/mL: MIC90 [6] | MIC90 [19] | MIC90 [46]
0.25 µg/mL: MIC90 (Streptococcus pneumoniae [1]) | MIC90 (Streptococcus pyogenes [2]) | MIC90 (Streptococcus pneumoniae [15]) | MIC90 (Streptococcus pneumoniae [17]) | MIC90 (Streptococcus pyogenes [18]) | MIC90 (Streptococcus pyogenes [27])
1 µg/mL: MIC90 [36]
100%: Activity [4] | Activity (Streptococcus agalactiae [8]) | Activity (Streptococcus pyogenes [11]) | Activity [13] | Activity (Streptococcus pneumoniae [16]) | Activity [23] | Activity [25] | Activity (Enterococcus faecalis [29]) | Activity (Streptococcus pneumoniae [31]) | Activity [34] | Activity [35] | Activity (Streptococcus pyogenes [37]) | Activity (Streptococcus pneumoniae [41]) | Activity (Streptococcus pneumoniae [42]) | Activity (Streptococcus agalactiae [43]) | Activity (Staphylococcus aureus) | Activity (Enterococcus faecalis [44]) | Activity (Streptococcus pyogenes [48]) | Activity (Streptococcus agalactiae [49])
94.3%: Activity (Enterococcus faecalis [21])
> 256 µg/mL: MIC90 (Enterococcus faecium)
0%: Resistant isolates [3] | Activity (Enterococcus faecalis [12]) | Activity (Streptococcus agalactiae [14]) | Activity (Streptococcus agalactiae [30]) | Activity (Enterococcus faecalis [33]) | Activity (Streptococcus agalactiae [40]) | Activity [47]

From ChEMBL document CHEMBL1649268, “Comparative in vitro activity profile of oritavancin against recent gram-positive clinical isolates” (2009)
